# Reference: US20250073338A1, “CONJUGATE COMPOUNDS AND COMPOSITIONS” (REZUBIO PHARMACEUTICALS CO., LTD, priority 2023, published 2025)
# Structures can show the parent of a compound that is named as a salt.
# Tests used:
# GPR40 = molecular target: T1, GPR40 (Homo sapiens, UniProt O14842); test: IP1 accumulation assay in HEK293 cells stably expressing GPR40; type: cell-based; settings: HEK293 cells stably expressing GPR40, 2 hours at 37° C.
# T1 construct: expressed in transfected cells
# Description: IP1 accumulation assay was used to evaluate the potency of compounds. HEK293 cells stably expressing GPR40 were cultured in 5% CO2 incubator (ThermoFisher) in maintenance media (Dulbecco's modified Eagle's medium with 4.5 g/L of glucose, 10% fetal bovine serum, 100 μg/mL Hygromycin, and Penicillin (100 U/mL)/Streptomycin (100 μg/mL)) till 100% confluency. Cells were harvested freshly, spun down at 300× g for 5 min, and resuspended in pre-warmed 1× stimulant buffer from Cisbio IP-One HTRF Detection kit (Cisbio). Cell density was adjusted to 2.0×10^6 cells/mL. DMSO was used as blank control and AMG-1638 (CAS #: 1142214-62-7) as positive control. Compounds were prepared at 10 mM in DMSO and 5 nL of 3× serially diluted compounds (10 concentrations) were added to each well of the 384-LDV assay plate (Corning) by using ECHO 550 (Labcyte). Five μL of cells in suspension were transferred into each well by using Multidrop Combi Reagent Dispenser (ThermoFisher). Assay plate was then sealed and incubated at 37° C. for 2 hours. IP-d2 reagent and anti-IP1 reagent were prepared following the manual (Cisbio). Five μL of IP1-d2 and then 5 μL of anti-IP1 antibody was added to each well sequentially. Assay plate was incubated at room temperature for 60 min and then read at 665 nm/615 nm on an Envision plate reader (PerkinElmer). The ratio of values obtained at 665 nm and 615 nm was used for calculation of IP1 accumulation: % Effect=(Ratiosample−Ratioblank)/(RatioAMG-1638−Ratioblank)×100. Dose curve was fitted and EC50 of each compound was calculated by using XLFit.
# [1] = Pharmacokinetics in mice (IV and PO), plasma LC-MS/MS; type: in vivo, Male ICR (CD-1) mice
# Description: Male ICR (CD-1) mice at around 4-6 weeks with body weight of around 25 grams (n=3) were purchased from VT-River (Zhejiang, China). After 1-week acclimation, animals were dosed with exemplary compounds intravenously at 1 mpk or orally at 10 mpk (0.5% methylcellulose in PBS as vehicle for both routes of administration). Blood samples (30 μL) were collected via saphenous vein puncture at 5 (IV only), 15, 30, 60, 120, 240, 480, and 1440 min post dose. The blood samples were saved in 0.5 M K2EDTA coated tubes and centrifuged at 4,600 rpm at 4° C. for 5 min. Plasma samples were collected and stored in −80° C. till PK analysis.
# Take 10 μL of K2EDTA-treated plasma samples of CD-1 mice, add 200 μL of precipitation solution with internal standard (5 ng/mL Terfenadine in MeOH/ACN), mix well by vortexing for 1 min at room temperature followed by centrifuge at 4° C. and 4000 rpm for 15 min. Save the supernatant as injection for LC-MS/MS quantification of exemplary compounds in plasma samples of mice.
# Establish a standard curve before and after each analytical batch, accompanied by quality controls of low, medium, and high concentrations. The number of quality control samples is not less than 6 and should be equal to or more than the number of samples of each batch, and interspersed in sample measurement. Standard curve and quality control samples of each batch must meet the acceptance criteria.
# [2] = male, ICR (CD-1), mouse, plasma, 10 mg/kg, PO (10 mpk)
# T1 sequence (O14842 whole entry): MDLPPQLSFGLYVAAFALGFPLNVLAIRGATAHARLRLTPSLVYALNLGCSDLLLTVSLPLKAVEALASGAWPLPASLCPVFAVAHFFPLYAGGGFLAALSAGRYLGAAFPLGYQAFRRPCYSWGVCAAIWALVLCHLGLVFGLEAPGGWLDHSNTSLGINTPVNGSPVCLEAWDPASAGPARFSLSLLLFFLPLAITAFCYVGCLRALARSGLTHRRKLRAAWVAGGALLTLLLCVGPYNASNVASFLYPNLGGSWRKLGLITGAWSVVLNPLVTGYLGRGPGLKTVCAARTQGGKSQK
Compound,EC50 (GPR40),further results
COc1ccc(C(=O)N(CC(C)(C)CCCCCCCCCCCCCCCCCCCC(=O)NCCN(CCC(=O)NCCN)CCC(=O)NCCN)c2cccc(C)n2)c(N2CCC(COc3cc([C@@H](CC(=O)O)C4CC4)ccn3)CC2)c1 [Example 1],1.23 nM,–
COc1ccc(C(=O)N(CC(C)(C)CCCCCCCCCCCCCCCCCCCC(=O)NCCN(CC(=O)NCCN)CC(=O)NCCN)c2cccc(C)n2)c(N2CCC(COc3cc([C@@H](CC(=O)O)C4CC4)ccn3)CC2)c1 [Example 2],2 nM,–
COc1ccc(C(=O)N(CC(C)(C)CCCCCCCCCCCCCCCCCCCC(=O)NCC[N+](C)(CCC(=O)NCCN)CCC(=O)NCCN)c2cccc(C)n2)c(N2CCC(COc3cc([C@@H](CC(=O)O)C4CC4)ccn3)CC2)c1 [Example 3],1.79 nM,–
COc1ccc(C(=O)N(CC(C)(C)CCCCCCCCCCCCCCCCCCCC(=O)NCC[N+](C)(CC(=O)NCCN)CC(=O)NCCN)c2cccc(C)n2)c(N2CCC(COc3cc([C@@H](CC(=O)O)C4CC4)ccn3)CC2)c1 [Example 4],2.14 nM,"Cl ([1]; IV (1 mpk)): 0.22 ml/mL/kg; AUC ([1]; male, ICR (CD-1), mouse, plasma, 1 mg/kg, IV (1 mpk)): 54.1 µM·h; half-life ([1]; male, ICR (CD-1), mouse, plasma, 1 mg/kg, IV (1 mpk), read-out: T½ (converted)): 8.2 h; Vd ([1]; male, ICR (CD-1), mouse, plasma, 1 mg/kg, IV (1 mpk), read-out: Vss): 0.14 L/kg; Cmax [1, 2]: 66.1 nM; Tmax [1, 2]: 5.3 h; bioavailability ([1]; male, ICR (CD-1), mouse, plasma, 10 mg/kg, PO (10 mpk), oral bioavailability): 0.16%"
COc1ccc(C(=O)N(CC(C)(C)CCCCCCCCCCCCCCCCCCCC(=O)NCCCN(CC(=O)NCCN)CC(=O)NCCN)c2cccc(C)n2)c(N2CCC(COc3cc([C@@H](CC(=O)O)C4CC4)ccn3)CC2)c1 [Example 5],1.73 nM,–
COc1ccc(C(=O)N(CC(C)(C)CCCCCCCCCCCCCCCCCCCC(=O)NCCC[N+](C)(CC(=O)NCCN)CC(=O)NCCN)c2cccc(C)n2)c(N2CCC(COc3cc([C@@H](CC(=O)O)C4CC4)ccn3)CC2)c1 [Example 6],0.84 nM,–
COc1ccc(C(=O)N(CC(C)(C)CCCCCCCCCCCCCCCCCCCCC(=O)NCC[N+](C)(CC(=O)NCCN)CC(=O)NCCN)c2cccc(C)n2)c(N2CCC(COc3cc([C@@H](CC(=O)O)C4CC4)ccn3)CC2)c1 [Example 10],3.65 nM,–
"COc1ccc(C(=O)N(CC(C)(C)CCCCCCCCCCCCCCCCCCCCCC(=O)NCC[N+](C)(CC(=O)NCCN)CC(=O)NCCN)c2cccc(C)n2)c(N2CCC(COc3cc([C@@H](CC(=O)O)C4CC4)ccn3)CC2)c1 [Example 11, (S)-2-((2-aminoethyl)amino)-N-(2-((2-aminoethyl)amino)-2-oxoethyl)-N-(2-(24-(2-(4-(((4-(2-carboxy-1-cyclopropylethyl)pyridin-2-yl)oxy)methyl)piperidin-1-yl)-4-methoxy-N-(6-methylpyridin-2-yl)benzamido)-23,23-dimethyltetracosanamido)ethyl)-N-methyl-2-oxoethanaminium trifluoroacetate]",1.34 nM,–
C[C@H](C(=O)O)[C@H](c1ccc2c(c1)O[C@@H](C1CCN(Cc3cc(CCCCCCCCCCCCCCCCCCCC(=O)NCCC[N+](C)(CC(=O)NCCN)CC(=O)NCCN)ccc3OC(F)(F)F)CC1)CC2)C1CC1 [Example 20],3.57 nM,–
"COc1ccc(C(=O)N(CC(C)(C)CCCCCCCCCCCCCCCCCCNC(=O)C[N+]23CCN(CC2)CC3)c2cccc(C)n2)c(N2CCC(COc3cc([C@@H](CC(=O)O)C4CC4)ccn3)CC2)c1 [Example 23, (S)-1-(2-((20-(2-(4-(((4-(2-carboxy-1-cyclopropylethyl)pyridin-2-yl)oxy)methyl)piperidin-1-yl)-4-methoxy-N-(6-methylpyridin-2-yl)benzamido)-19,19-dimethylicosyl)amino)-2-oxoethyl)-1,4-diazabicyclo[2.2.2]octan-1-ium trifluoroacetate]",2.8 nM,–
COc1ccc(C(=O)N(CC(C)(C)CCCCCCCCCCCCCCCCCC[N+]2(C)CCN(C)CC2)c2cccc(C)n2)c(N2CCC(COc3cc([C@@H](CC(=O)O)C4CC4)ccn3)CC2)c1 [Example 24],1.15 nM,–
COc1ccc(C(=O)N(CC(C)(C)CCn2cc(CCCCCCCCCCCCCCCCCC(=O)NCCNC(=O)C(CCCCN(CCCN)CCCN)NCCCN)nn2)c2cccc(C)n2)c(N2CCC(COc3cc([C@@H](CC(=O)O)C4CC4)ccn3)CC2)c1 (some centres unmarked) [Example 27],0.71 nM,–
COc1ccc(C(=O)N(CC(C)(C)CCCCCCCCCCCCCCCCCC(=O)NCc2ccccc2)c2cccc(C)n2)c(N2CCC(COc3cc([C@@H](CC(=O)O)C4CC4)ccn3)CC2)c1 [Example 31],163 nM,–
CCCCNC(=O)CCCCCCCCCCCCCCCCCC(C)(C)CN(C(=O)c1ccc(OC)cc1N1CCC(COc2cc([C@@H](CC(=O)O)C3CC3)ccn2)CC1)c1cccc(C)n1 [Example 32],385 nM,–
COc1ccc(C(=O)N(CC(C)(C)CCn2cc(CCCCCCCCCCCCCCCCCC(=O)O)nn2)c2cccc(C)n2)c(N2CCC(COc3cc([C@@H](CC(=O)O)C4CC4)ccn3)CC2)c1 [Example 33],> 152 nM,–
COc1ccc(C(=O)N(CC(C)(C)CCCCCCCCCCCCCCCCCC(=O)NCCC[N+](C)(C)CCCS(=O)(=O)[O-])c2cccc(C)n2)c(N2CCC(COc3cc([C@@H](CC(=O)O)C4CC4)ccn3)CC2)c1 [Example 36],0.78 nM,–

# These reach a lower EC50 (GPR40). Values come first.
EC50 (GPR40),Compound,further results
0.53 nM,COc1ccc(C(=O)N(CC(C)(C)CCCCCCCCCCCCCCCCCC(=O)NCC[N+](C)(CC(=O)NCCN)CC(=O)NCCN)c2cccc(C)n2)c(N2CCC(COc3cc([C@@H](CC(=O)O)C4CC4)ccn3)CC2)c1 [Example 7],–
0.28 nM,COc1ccc(C(=O)N(CC(C)(C)CCCCCCCCCCCCCCCCCCCC(=O)NCCN(CCCC(=O)NCCN)CCCC(=O)NCCN)c2cccc(C)n2)c(N2CCC(COc3cc([C@@H](CC(=O)O)C4CC4)ccn3)CC2)c1 [Example 8],–
0.35 nM,COc1ccc(C(=O)N(CC(C)(C)CCCCCCCCCCCCCCCCCCCC(=O)NCC[N+](C)(CCCC(=O)NCCN)CCCC(=O)NCCN)c2cccc(C)n2)c(N2CCC(COc3cc([C@@H](CC(=O)O)C4CC4)ccn3)CC2)c1 [Example 9],–
0.67 nM,COc1ccc(C(=O)N(CC(C)(C)CCCCCCCCCCCCCCCCCCCC(=O)NCCCN(C)CC(=O)NCCN)c2cccc(C)n2)c(N2CCC(COc3cc([C@@H](CC(=O)O)C4CC4)ccn3)CC2)c1 [Example 15],–
0.48 nM,COc1ccc(C(=O)N(CC(C)(C)CCCCCCCCCCCCCCCCCCCC(=O)NCCC[N+](C)(C)CC(=O)NCCN)c2cccc(C)n2)c(N2CCC(COc3cc([C@@H](CC(=O)O)C4CC4)ccn3)CC2)c1 [Example 16],–
0.36 nM,COc1ccc(C(=O)N(CC(C)(C)CCCCCCCCCCCCCCCCCC[N+]23CCN(CC2)CC3)c2cccc(C)n2)c(N2CCC(COc3cc([C@@H](CC(=O)O)C4CC4)ccn3)CC2)c1 [Example 22],–
0.45 nM,COc1ccc(C(=O)N(CC(C)(C)CCCCCCCCCCCCCCCCCC[N+](C)(C)C)c2cccc(C)n2)c(N2CCC(COc3cc([C@@H](CC(=O)O)C4CC4)ccn3)CC2)c1 [Example 25],–
0.36 nM,CC[N+](CC)(CC)CCCCCCCCCCCCCCCCCCC(C)(C)CN(C(=O)c1ccc(OC)cc1N1CCC(COc2cc([C@@H](CC(=O)O)C3CC3)ccn2)CC1)c1cccc(C)n1 [Example 26],–
0.49 nM,COc1ccc(C(=O)N(CC(C)(C)CCCCCCCCCCCCCCCCCC(=O)NCCCC[N+]23CCN(CC2)CC3)c2cccc(C)n2)c(N2CCC(COc3cc([C@@H](CC(=O)O)C4CC4)ccn3)CC2)c1 [Example 28],–
0.32 nM,COc1ccc(C(=O)N(CC(C)(C)CCCCCCCCCCCCCCCCCC(=O)NCCCC[N+](C)(C)C)c2cccc(C)n2)c(N2CCC(COc3cc([C@@H](CC(=O)O)C4CC4)ccn3)CC2)c1 [Example 29],–
0.43 nM,CC[N+](CC)(CC)CCCCNC(=O)CCCCCCCCCCCCCCCCCC(C)(C)CN(C(=O)c1ccc(OC)cc1N1CCC(COc2cc([C@@H](CC(=O)O)C3CC3)ccn2)CC1)c1cccc(C)n1 [Example 30],–
0.63 nM,COc1ccc(C(=O)N(CC(C)(C)CCCCCCCCCCCCCCCCCC(=O)NCCC[N+](C)(CC(=O)[O-])CC(=O)O)c2cccc(C)n2)c(N2CCC(COc3cc([C@@H](CC(=O)O)C4CC4)ccn3)CC2)c1 (some centres unmarked) [Example 35],–
